Experimental data from patent US8399497B2, “Thiazole derivatives and use thereof” (Merck Serono SA, priority 2005, dated 2013).
Where two headings read alike, the source gives them in different places.

Experiments:
[1] = molecular target: Human recombinant GST-PI3Kγ (Homo sapiens, UniProt P48736); assay: High throughput PI3K lipid kinase assay (SPA, neomycin-coated beads); format: biochemical
Description: a) High Throughput PI3K Lipid Kinase Assay (Binding Assay):
The efficacy of compounds of the invention in inhibiting the PI3K induced-lipid phosphorylation may be tested in the following binding assay.
The assay combines the scintillation proximity assay technology (SPA, Amersham) with the capacity of neomycin (a polycationic antibiotic) to bind phospholipids with high affinity and specificity. The Scintillation Proximity Assay is based on the properties of weakly emitting isotopes (such as ^3H, ^125I, ^33P). Coating SPA beads with neomycin allows the detection of phosphorylated lipid substrates after incubation with recombinant PI3K and radioactive ATP in the same well, by capturing the radioactive phospholipids to the SPA beads through their specific binding to neomycin.
To a 384 wells MTP containing 5 μl of the test compound of Formula (I) (solubilized in 6% DMSO; to yield a concentration of 100, 30, 10, 3, 1, 0.3, 0.1, 0.03, 0.01, 01 μM of the test compound), the following assay components are added. 1) 5 μl (58 ng) of Human recombinant GST-PI3Kγ (in Hepes 40 mM, pH 7.4, DTT 1 mM and ethylenglycol 5%) 2) 10 μl of lipid micelles and 3) 10 μl of Kinase buffer ([^33P]γ-ATP 45 μM/60 nCi, MgCl2 30 mM, DTT 1 mM, β-Glycerophosphate 1 mM, Na3VO4 100 μM, Na Cholate 0.3%, in Hepes 40 mM, pH 7.4). After incubation at room temperature for 180 minutes, with gentle agitation, the reaction is stopped by addition of 60 μl of a solution containing 100 μg of neomycin-coated PVT SPA beads in PBS containing ATP 10 mM and EDTA 5 mM. The assay is further incubated at room temperature for 60 minutes with gentle agitation to allow binding of phospholipids to neomycin-SPA beads. After precipitation of the neomycin-coated PVT SPA beads for 5 minutes at 1500×g, radioactive PtdIns(3)P is quantified by scintillation counting in a Wallac MicroBeta™ plate counter.
The values indicated in Table II below refer to the IC50 (μM) with respect to PI3Kγ, i.e. the amount necessary to achieve 50% inhibition of said target. Said values show a considerable inhibitory potency of thiazole compounds with regard to PI3Kγ.

[2] = tested on: PI3K induced Akt/PKB phosphorylation in Raw 264-7 macrophages; assay: Cell based ELISA of Akt/PKB phosphorylation in macrophages after Complement 5a stimulation; settings: Mus musculus, RAW264.7, 5 min, 50 nM Complement 5a for 5 minutes, read-out: Cell Assay (P-Akt, Elisa) IC50
Procedure: b) Cell Based ELISA to Monitor PI3K Inhibition:
The efficacy of compounds of the invention in inhibiting the PI3K induced Akt/PKB phosphorylation may be tested in the following cell based assay.
Measurement of Akt/PKB phosphorylation in macrophages after stimulation with Complement 5a: Raw 264: Raw 264-7 macrophages (cultured in DMEM-F12 medium containing 10% Fetal Calf serum and antibiotics) are plated at 20,000 cells/well in a 96 MTP 24 h before cell stimulation. Prior to the stimulation with 50 nM of Complement 5a during 5 minutes, Cells are serum starved for 2 h, and pretreated with inhibitors for 20 minutes. After stimulation cells are fixed in 4% formaldehyde for 20 minutes and washed 3 times in PBS containing 1% Triton X-100 (PBS/Triton). Endogenous peroxidase is blocked by a 20 minutes incubation in 0.6% H2O2 and 0.1% Sodium Azide in PBS/Triton and washed 3 times in PBS/Triton. Cells are then blocked by 60 minutes incubation with 10% fetal calf serum in PBS/Triton. Next, phosphorylated Akt/PKB is detected by an overnight incubation at 4° C. with primary antibody (anti phospho Serine 473 Akt IHC, Cell Signaling) diluted 800-fold in PBS/Triton, containing 5% bovine serum albumin (BSA). After 3 washes in PBS/Triton, cells are incubated for 60 minutes with a peroxidase conjugated goat-anti-rabbit secondary antibody (1/400 dilution in PBS/Triton, containing 5% BSA), washed 3 times in PBS/Triton, and 2 times in PBS and further incubated in 100 μl of luminescent substrate reagent solution (Pierce) for 2 minutes, followed by the reading (1 s/well).
The values indicated in Table III below reflect the percentage of inhibition of AKT phoshorylation as compared to basal level. Said values show a clear effect of the thiazole compounds on the activation of AKT phosphorylation in macrophages.

[3] = tested on: Neutrophil recruitment; assay: Thioglycollate-induced peritoneal cavity cell recruitment model, neutrophils; format: in vivo, C3H mice; settings: 10 mg/kg orally, lavage 4 h after thioglycollate
Procedure: (§1) Thioglycollate-Induced Pertioneal Cavity Cell Recruitment Model
(§2) The in vivo efficacy of compounds of the invention in inhibiting the migration of leukocytes upon intraperitoneal challenge of thioglycollate may be tested with the following assay.
(§3) 8-10 weeks old female C3H mice are fasted during 18 hours. 15 minutes prior the intraperitoneal injection of thioglycollate (1.5%, 40 ml/kg), the mice are treated orally with Thiazoles of Formula (I). Control mice receive CMC/Tween as vehicle (10 ml/kg). The mice are then sacrificed by CO2 inhalation and the peritoneal cavity is washed two times with 5 ml of ice-cold PBS/1 mM EDTA. The lavages are done 4 hours or 48 hours after thioglycollate challenge to evaluate neutrophils or macrophages recruitment, respectively. The white blood cells (neutrophils, lymphocytes or macrophages) are counted using a Beckman Coulter® A ^cT 5diff™. Dexamethasone is used as reference drug.

[4] = tested on: Macrophage recruitment; assay: Thioglycollate-induced peritoneal cavity cell recruitment model, macrophages; format: in vivo, C3H mice; settings: 10 mg/kg orally, lavage 48 h after thioglycollate
Procedure: as §1, §2, §3

[5] = tested on: Collagen-induced arthritis; assay: Collagen-induced arthritis, CIA (mouse); format: in vivo, DBA/1 mice; settings: twice a day, 7 days

Chain of Human recombinant GST-PI3Kγ (P48736 whole entry): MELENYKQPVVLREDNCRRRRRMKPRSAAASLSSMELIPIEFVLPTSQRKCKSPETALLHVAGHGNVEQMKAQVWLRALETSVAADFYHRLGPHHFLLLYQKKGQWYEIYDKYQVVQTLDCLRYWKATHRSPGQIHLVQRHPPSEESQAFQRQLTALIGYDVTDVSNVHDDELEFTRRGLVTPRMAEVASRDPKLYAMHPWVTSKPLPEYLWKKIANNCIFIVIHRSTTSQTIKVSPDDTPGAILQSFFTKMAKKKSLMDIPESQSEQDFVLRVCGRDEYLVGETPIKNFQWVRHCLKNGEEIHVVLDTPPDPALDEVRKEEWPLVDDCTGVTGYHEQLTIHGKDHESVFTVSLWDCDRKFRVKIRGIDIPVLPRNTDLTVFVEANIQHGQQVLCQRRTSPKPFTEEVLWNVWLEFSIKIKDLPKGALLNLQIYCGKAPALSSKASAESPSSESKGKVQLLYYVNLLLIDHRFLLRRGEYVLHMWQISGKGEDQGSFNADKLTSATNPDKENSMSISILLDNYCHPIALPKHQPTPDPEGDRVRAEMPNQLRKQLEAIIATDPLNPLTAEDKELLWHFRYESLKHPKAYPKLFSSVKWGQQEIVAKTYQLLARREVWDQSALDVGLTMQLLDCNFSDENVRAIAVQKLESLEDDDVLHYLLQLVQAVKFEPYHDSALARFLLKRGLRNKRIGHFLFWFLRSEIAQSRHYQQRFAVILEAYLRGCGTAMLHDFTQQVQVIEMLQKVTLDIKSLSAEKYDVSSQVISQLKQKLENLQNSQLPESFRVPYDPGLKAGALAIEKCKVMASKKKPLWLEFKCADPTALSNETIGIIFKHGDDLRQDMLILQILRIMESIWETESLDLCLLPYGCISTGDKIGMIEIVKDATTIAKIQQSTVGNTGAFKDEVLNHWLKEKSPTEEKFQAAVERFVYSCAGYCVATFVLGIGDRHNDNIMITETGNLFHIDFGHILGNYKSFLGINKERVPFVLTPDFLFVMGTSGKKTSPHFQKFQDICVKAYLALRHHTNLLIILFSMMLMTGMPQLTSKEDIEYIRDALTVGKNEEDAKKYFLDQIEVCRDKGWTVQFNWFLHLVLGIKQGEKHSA

IC50 [1]: 0.014 µM
IC50 [2]: 0.05 µM
IC50 ([2]; re-testing): 0.32 µM
Compound: CC(=O)Nc1nc(C)c(-c2csc(S(=O)(=O)N3CCC(O)CC3)c2)s1 [Example 39, N-(5-{5-[(4-hydroxypiperidin-1-yl)sulfonyl]-3-thienyl}-4-methyl-1,3-thiazol-2-yl)acetamide]
% inhibition of Neutrophil recruitment at 10 mg/kg after 4 h [3]: 48%
% inhibition of Macrophage recruitment at 10 mg/kg after 48 h [4]: 43%
Reduction of total clinical score [%] ([5]; 10 mg/kg orally): 30%
Reduction of total clinical score [%] ([5]; 30 mg/kg orally): 50%
Reduction of total clinical score [%] ([5]; 60 mg/kg orally): 75%
